Measurements reported in article PMC5624964, “ORP5 and ORP8 bind phosphatidylinositol-4, 5-biphosphate (PtdIns(4,5)P2) and regulate its level at the plasma membrane” (Nature Communications, 2017).
Read-outs that look alike come from different tables or passages of the source.

Columns and labels:
Test in all cases: isothermal titration calorimetry
Assay type in all cases: binding
ORP8 ORD = target: T1, ORP8 ORD (Homo sapiens, UniProt Q9BZF1)
T1 construct: gene OSBPL8; ORD domain 400-778 of ORP8L, His6-ubiquitin tag removed by DUB without extra N-terminal residues, E. coli
T1 sequence (Q9BZF1 400-778): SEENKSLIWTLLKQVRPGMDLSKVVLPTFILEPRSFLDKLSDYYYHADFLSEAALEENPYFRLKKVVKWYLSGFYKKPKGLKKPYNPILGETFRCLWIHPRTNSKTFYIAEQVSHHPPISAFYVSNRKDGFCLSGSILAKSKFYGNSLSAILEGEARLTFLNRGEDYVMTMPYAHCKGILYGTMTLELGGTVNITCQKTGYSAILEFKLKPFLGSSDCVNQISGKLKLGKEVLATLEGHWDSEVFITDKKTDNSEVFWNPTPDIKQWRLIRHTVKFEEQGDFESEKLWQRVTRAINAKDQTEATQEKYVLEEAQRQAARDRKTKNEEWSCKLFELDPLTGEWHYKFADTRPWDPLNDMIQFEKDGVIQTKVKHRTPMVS
Source text: isothermal titration calorimetry on ORP8 ORD

ORP5 ORD = target: T2, ORP5 ORD (Homo sapiens, UniProt Q9H0X9)
T2 construct: gene OSBPL5; ORD domain 364-746 of ORP5A, His6-ubiquitin tag removed by DUB without extra N-terminal residues, E. coli
T2 sequence (Q9H0X9 364-746): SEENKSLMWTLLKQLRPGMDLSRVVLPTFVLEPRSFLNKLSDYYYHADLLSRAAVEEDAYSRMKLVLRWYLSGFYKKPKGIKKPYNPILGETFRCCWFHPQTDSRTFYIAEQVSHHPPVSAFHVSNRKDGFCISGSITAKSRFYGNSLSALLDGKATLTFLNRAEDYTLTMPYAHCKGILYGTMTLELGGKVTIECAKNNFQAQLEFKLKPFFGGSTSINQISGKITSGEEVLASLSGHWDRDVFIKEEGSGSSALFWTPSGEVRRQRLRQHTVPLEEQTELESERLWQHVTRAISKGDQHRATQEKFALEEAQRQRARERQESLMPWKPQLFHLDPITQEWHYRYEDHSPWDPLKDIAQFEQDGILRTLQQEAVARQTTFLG
Source text: isothermal titration calorimetry on ORP5 ORD

ORP8 PH = target: T3, ORP8 PH (Homo sapiens, UniProt Q9BZF1)
T3 construct: gene OSBPL8; PH domain 149-265 of ORP8L, synthetic gene, N-terminal MGSSGSSG and C-terminal RSGPSSGLEEF linkers, GST tag cleaved by thrombin, E. coli
T3 sequence (Q9BZF1 149-265): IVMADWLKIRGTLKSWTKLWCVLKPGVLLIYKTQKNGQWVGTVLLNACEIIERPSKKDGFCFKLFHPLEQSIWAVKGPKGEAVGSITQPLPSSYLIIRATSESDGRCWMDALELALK
Source text: isothermal titration calorimetry on ORP8 PH

ORP5 PH = target: T4, ORP5 PH (Homo sapiens, UniProt Q9H0X9)
T4 construct: gene OSBPL5; PH domain 127-243 of ORP5A, synthetic gene, N-terminal MGSSGSSG and C-terminal RSGPSSGLEEF linkers, GST tag cleaved by thrombin, E. coli
T4 sequence (Q9H0X9 127-243): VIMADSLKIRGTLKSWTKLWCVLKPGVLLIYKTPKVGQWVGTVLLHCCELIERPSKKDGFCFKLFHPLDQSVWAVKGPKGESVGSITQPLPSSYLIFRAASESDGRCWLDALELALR
Source text: isothermal titration calorimetry on ORP5 PH

[1] = water-soluble diC8 lipid, 25 °C, 50 mM Tris pH 8.0, 100 mM NaCl

Row | SMILES | Kd (ORP8 ORD) [µM] | Kd (ORP5 ORD) [µM] | Kd (ORP8 PH) [µM] | Kd (ORP5 PH; [1]) [µM] | Kd (ORP5 ORD; [1]) [µM] | Kd (ORP8 ORD; [1]) [µM] | Kd (ORP5 PH) [µM]
1 | CCCCCCCC(=O)OC[C@H](COP(=O)(O)O[C@@H]1[C@H](O)[C@H](OP(=O)(O)O)[C@@H](O)[C@H](O)[C@H]1O)OC(=O)CCCCCCC [PtdIns(3)P] | 1.7 ± 0.8 | 9 ± 2.7 |  |  |  |  | 
2 | CCCCCCCC(=O)OC[C@H](COP(=O)(O)O[C@H]1[C@H](O)[C@@H](O)[C@H](OP(=O)(O)O)[C@@H](OP(=O)(O)O)[C@H]1O)OC(=O)CCCCCCC [PtdIns(3,4)P2] | 2.5 ± 0.6 |  | 2.9 ± 0.1 | 16.3 ± 0.4 | 0.8 ± 0.8 |  | 
3 | CCCCCCCC(=O)OC[C@H](COP(=O)(O)O[C@H]1[C@H](O)[C@@H](O)[C@H](OP(=O)(O)O)[C@@H](O)[C@H]1O)OC(=O)CCCCCCC [PtdIns(4)P] |  |  |  |  | 6.7 ± 3.3 | 2.3 ± 0.3 | 
4 | CCCCCCCC(=O)OC[C@H](COP(=O)(O)O[C@H]1[C@H](O)[C@@H](OP(=O)(O)O)[C@H](O)[C@@H](O)[C@H]1O)OC(=O)CCCCCCC [PtdIns(5)P] | 5.9 ± 4.1 |  |  |  |  |  | 

More lines, now with the values ahead:

Row | Kd (ORP8 ORD) [µM] | Kd (ORP5 ORD) [µM] | Kd (ORP8 PH) [µM] | Kd (ORP5 PH; [1]) [µM] | Kd (ORP5 ORD; [1]) [µM] | Kd (ORP8 ORD; [1]) [µM] | Kd (ORP5 PH) [µM] | SMILES
5 |  |  | 11.8 ± 3.2 | 5.3 ± 2.4 | 1.1 ± 0.3 |  |  | CCCCCCCC(=O)OC[C@H](COP(=O)(O)O[C@H]1[C@H](O)[C@@H](OP(=O)(O)O)[C@H](OP(=O)(O)O)[C@@H](OP(=O)(O)O)[C@H]1O)OC(=O)CCCCCCC [PtdIns(3,4,5)P3]
6 | 5.3 ± 0.4 | 6.7 ± 1.5 | 5.5 ± 1.2 |  |  |  | 7.3 ± 0.5 | CCCCCCCC(=O)OC[C@H](COP(=O)(O)O[C@@H]1[C@H](O)[C@H](O)[C@@H](OP(=O)(O)O)[C@H](OP(=O)(O)O)[C@H]1O)OC(=O)CCCCCCC [PtdIns(4,5)P2]
